Test results published in patent US20130131161A1, “METHODS AND COMPOSITIONS FOR CARDIOVASCULAR DISEASES AND CONDITIONS” (priority 2009, published 2013).
“And” between values parts separate entries of the source, which are not always exact repeats. Identical values can stand only once.

Tested on: Human umbilical vein endothelial cells (HUVECs)
Assay: eNOS activity analysis: NO, ONOO− and NO/ONOO− release from HUVECs of 50 genotyped donors in response to LA-419 (Example 2)
Type: cell-based
Protocol: Concurrent measurements of NO and ONOO^− were carried out with tandem electrochemical nanosensors combined into one working unit with a total diameter of 200-500 nm (FIG. 1). Their design was based on previously developed and well-characterized chemically modified carbon-fiber technology (Malinski and Taha, 1992; Lvovich and Scheeline, 1997). Each of the nanosensors was made by depositing a sensing material on the tip of a carbon fiber (length 4-5 μm, diameter 0.2-0.5 μm). The fibers were sealed with nonconductive epoxy and electrically connected to copper wires with conductive silver epoxy. A conductive film of polymeric nickel (II) tetrakis(3-methoxy-4-hydroxyphenyl)porphyrin for the NO-sensor and polymeric film of Mn (III) [2.2]paracyclophanylporphyrin was used for the ONOO^−-sensor.
A module of NO/ONOO^− nanosensors (diameter 1-2 μm) with a platinum wire (0.1 mm) counter electrode and saturated calomel reference electrode (SCE) were applied. Differential pulse voltammetry (DPV) and amperometry were performed with a computer-based Gamry VFP600 multichannel potentiostat. DPV was used to measure the basal NO and ONOO^− concentrations, and amperometry was used to measure changes in NO and ONOO^− concentrations from its basal level with time. The DPV current at the peak potential characteristic for NO oxidation (0.65 V) and ONOO^− reduction (−0.45 V) was directly proportional to the local concentrations of these compounds in the immediate vicinity of the sensor. Linear calibration curves (current vs. concentration) were constructed for each sensor from 10 nM to 3 μM before and after measurements with aliquots of NO and ONOO^− standard solutions, respectively. The detection limit of the sensors was 1.0 nM.
The quantification of each analyte (concentration in nM) was performed using a maximum current from amperograms and standard calibration curves. A reproducibility of measurements with nanosensors is relatively high (between 5-12%). […] The sensors were slowly raised 5±2 μm from the surface of a single endothelial cell. The eNOS agonist, calcium ionophore A23187 (CaI) as well as the different drugs were then added to the surrounding media at the cell surface with a nanoinjector that was also positioned by a computer controlled-micromanipulator.
This example describes the genotype-specific response of the three major eNOS variants to 1 μM and 5 μM concentrations of LA-419. The three major genetic polymorphisms studied were the Glu298Asp variant (E298D or 894G→T) in exon 7 of […], the −786T→C variant in the promoter region, and the intron 4 polymorphism (VNTR). All of these variants have possible effects on the cardiovascular system and endothelial dysfunction. For this study, human umbilical vein endothelial cells (HUVECs) from 50 donors between 18 and 32 years of age were used.
For the analysis several analysis techniques were employed. First, the effect of genotype on NO and ONOO^− release was explored within the different concentrations of LA-419 (control, 1 μM, 5 μM), calculated as the average peak release (nmols/L) of NO, ONOO^−, and NO/ONOO^−. The effect of genotype on the net increase in NO, ONOO^−, and NO/ONOO^− for LA-419 (1 μM and 5 μM) as compared to control was also measured. In addition, an analysis was done on the effect of genotype on the % change in NO, ONOO^−, and NO/ONOO^− production for LA-419 (1 μM and 5 μM), calculated as:
% Change=[(avg. LA-419−avg. control)/(avg. control)]*100
Finally, an evaluation was undertaken concerning the effect of genotype on the production of NO, ONOO^−, and NO/ONOO^− as the fold difference of control for LA-419 (1 μM and 5 μM), calculated as:
Fold Difference=(avg. LA-419)/(avg. control)
Within each calculation technique the results were compared for statistical significance using a non-parametric ANOVA Kruskal-Wallace test or a non-parametric Mann-Whitney U test. Statistical significance was set at a p-value <0.05 in a two-tailed distribution. […]

[1] = (LA-419 1 μM)/(control), T-786C T/C & C/C, n=27
[2] = (LA-419 1 μM)/(control), T-786C T/C, n=23
[3] = (LA-419 1 μM)/(control), T-786C T/T & T/C, n=45
[4] = (LA-419 1 μM)/(control), T-786C T/T, n=22
[5] = (LA-419 5 μM)/(control), Combination of all G894T + T-786C genotypes but G/G + T/T, n=31
[6] = (LA-419 5 μM)/(control), Combination of all G894T + T-786C genotypes but T/T + C/C, n=46
[7] = (LA-419 5 μM)/(control), G894T + T-786C G/G + T/C, n=8
[8] = (LA-419 5 μM)/(control), G894T + T-786C G/G + T/T, n=18
[9] = (LA-419 5 μM)/(control), G894T + T-786C G/T + C/C, n=1
[10] = (LA-419 5 μM)/(control), G894T + T-786C G/T + T/C, n=13
[11] = (LA-419 5 μM)/(control), G894T + T-786C G/T + T/T, n=4
[12] = (LA-419 5 μM)/(control), G894T + T-786C T/T + C/C, n=1
[13] = (LA-419 5 μM)/(control), G894T + T-786C T/T + C/C, n=3
[14] = (LA-419 5 μM)/(control), G894T + T-786C T/T + T/C, n=2
[15] = (LA-419 5 μM)/(control), G894T G/G & G/T, n=44
[16] = (LA-419 5 μM)/(control), G894T G/G, n=26
[17] = (LA-419 5 μM)/(control), G894T G/T & T/T, n=23
[18] = (LA-419 5 μM)/(control), G894T G/T, n=18
[19] = (LA-419 5 μM)/(control), G894T T/T, n=5
[20] = (LA-419 5 μM)/(control), Intron 4 a/a, n=1
[21] = (LA-419 5 μM)/(control), Intron 4 a/a, n=3
[22] = (LA-419 5 μM)/(control), Intron 4 b/a, a/a, c/c, n=14
[23] = (LA-419 5 μM)/(control), Intron 4 b/a, n=10
[24] = (LA-419 5 μM)/(control), Intron 4 b/b, b/a, c/c, n=42
[25] = (LA-419 5 μM)/(control), Intron 4 b/b, n=31
[26] = (LA-419 5 μM)/(control), Intron 4 c/c, n=1
[27] = (LA-419 5 μM)/(control), T-786C C/C, n=1

CC(=O)SC1COC2C(O[N+](=O)[O-])COC12 (stereo not drawn) [LA-419, S-(6-Nitro-oxi-hexahydro-furo[3,2-b]furan-3-1-il)thioacetate]
Fold difference ONOO− (mean ± sd) ((LA-419 1 μM)/(control), T-786C C/C, n=4): 1.11 (0.44) | Fold difference NO (mean ± sd) [1]: 1.15 (0.28) | Fold difference NO/ONOO− (mean ± sd) [1]: 1.45 (0.75) | Fold difference ONOO− (mean ± sd) [1]: 0.91 (0.31) | Fold difference NO (mean ± sd) [2]: 1.18 (0.30) | Fold difference NO/ONOO− (mean ± sd) [2]: 1.53 (0.78) | Fold difference ONOO− (mean ± sd) [2]: 0.88 (0.28) | Fold difference NO (mean ± sd) [3]: 1.14 (0.25) | Fold difference NO/ONOO− (mean ± sd) [3]: 1.39 (0.67) | Fold difference ONOO− (mean ± sd) [3]: 0.91 (0.25) | Fold difference NO (mean ± sd) [4]: 1.09 (0.18) | Fold difference NO/ONOO− (mean ± sd) [4]: 1.25 (0.52) | Fold difference ONOO− (mean ± sd) [4]: 0.95 (0.22) | Fold difference NO (mean ± sd) [5]: 1.13 (0.06) | Fold difference NO/ONOO− (mean ± sd) [5]: 1.40 (0.14) | Fold difference ONOO− (mean ± sd) [5]: 0.81 (0.07) | Fold difference NO (mean ± sd) [6]: 1.14 (0.06) | Fold difference NO/ONOO− (mean ± sd) [6]: 1.44 (0.16) | Fold difference ONOO− (mean ± sd) [6]: 0.81 (0.07) | Fold difference NO (mean ± sd) [7]: 1.14 (0.07) | Fold difference NO/ONOO− (mean ± sd) [7]: 1.44 (0.18) | Fold difference ONOO− (mean ± sd) [7]: 0.80 (0.07) | Fold difference NO (mean ± sd) [8]: 1.17 (0.06) | Fold difference NO/ONOO− (mean ± sd) [8]: 1.50 (0.18) | Fold difference ONOO− (mean ± sd) [8]: 0.79 (0.08) and 0.79 (0.06) | Fold difference NO (mean ± sd) [9]: 1.12 (0) | Fold difference NO/ONOO− (mean ± sd) [9]: 1.32 (0) | Fold difference ONOO− (mean ± sd) [9]: 0.85 (0) | Fold difference NO (mean ± sd) [10]: 1.13 (0.07) | Fold difference NO/ONOO− (mean ± sd) [10]: 1.37 (0.11) | Fold difference ONOO− (mean ± sd) [10]: 0.83 (0.04) | Fold difference NO (mean ± sd) [11]: 1.14 (0.05) | Fold difference NO/ONOO− (mean ± sd) [11]: 1.47 (0.19) | Fold difference ONOO− (mean ± sd) [11]: 0.79 (0.12) | Fold difference NO (mean ± sd) [12]: 1.08 (0) | Fold difference NO/ONOO− (mean ± sd) [12]: 1.59 (0) | Fold difference ONOO− (mean ± sd) [12]: 0.67 (0) | Fold difference NO (mean ± sd) [13]: 1.12 (0.07) | Fold difference NO/ONOO− (mean ± sd) [13]: 1.46 (0.14) | Fold difference ONOO− (mean ± sd) [13]: 0.77 (0.08) | Fold difference NO (mean ± sd) [14]: 1.12 (0.09) | Fold difference NO/ONOO− (mean ± sd) [14]: 1.29 (0.01) | Fold difference ONOO− (mean ± sd) [14]: 0.87 (0.06) | Fold difference NO (mean ± sd) [15]: 1.15 (0.06) | Fold difference NO/ONOO− (mean ± sd) [15]: 1.44 (0.16) | Fold difference ONOO− (mean ± sd) [15]: 0.80 (0.07) | Fold difference NO (mean ± sd) [16]: 1.16 (0.06) | Fold difference NO/ONOO− (mean ± sd) [16]: 1.48 (0.18) | Fold difference ONOO− (mean ± sd) [16]: 0.79 (0.07) | Fold difference NO (mean ± sd) [17]: 1.13 (0.06) | Fold difference NO/ONOO− (mean ± sd) [17]: 1.39 (0.13) | Fold difference ONOO− (mean ± sd) [17]: 0.82 (0.07) | Fold difference NO (mean ± sd) [18]: 1.13 (0.06) | Fold difference NO/ONOO− (mean ± sd) [18]: 1.39 (0.13) | Fold difference ONOO− (mean ± sd) [18]: 0.82 (0.06) | Fold difference NO (mean ± sd) [19]: 1.12 (0.07) | Fold difference NO/ONOO− (mean ± sd) [19]: 1.39 (0.13) | Fold difference ONOO− (mean ± sd) [19]: 0.81 (0.08) | Fold difference NO (mean ± sd) [20]: 1.17 (0) | Fold difference NO/ONOO− (mean ± sd) [20]: 1.39 (0) | Fold difference ONOO− (mean ± sd) [20]: 0.85 (0) | Fold difference NO (mean ± sd) [21]: 1.14 (0.04) | Fold difference NO/ONOO− (mean ± sd) [21]: 1.37 (0.04) | Fold difference ONOO− (mean ± sd) [21]: 0.83 (0.03) | Fold difference NO (mean ± sd) [22]: 1.16 (0.06) | Fold difference NO/ONOO− (mean ± sd) [22]: 1.44 (0.13) | Fold difference ONOO− (mean ± sd) [22]: 0.81 (0.05) | Fold difference NO (mean ± sd) [23]: 1.17 (0.07) | Fold difference NO/ONOO− (mean ± sd) [23]: 1.46 (0.14) | Fold difference ONOO− (mean ± sd) [23]: 0.80 (0.06) | Fold difference NO (mean ± sd) [24]: 1.14 (0.07) | Fold difference NO/ONOO− (mean ± sd) [24]: 1.43 (0.17) | Fold difference ONOO− (mean ± sd) [24]: 0.81 (0.07) | Fold difference NO (mean ± sd) [25]: 1.14 (0.07) | Fold difference NO/ONOO− (mean ± sd) [25]: 1.42 (0.18) | Fold difference ONOO− (mean ± sd) [25]: 0.81 (0.08) | Fold difference NO (mean ± sd) [26]: 1.17 (0) | Fold difference NO/ONOO− (mean ± sd) [26]: 1.53 (0) | Fold difference ONOO− (mean ± sd) [26]: 0.77 (0) | Fold difference NO (mean ± sd) [27]: 1.08 (0) | Fold difference NO/ONOO− (mean ± sd) [27]: 1.59 (0) | Fold difference ONOO− (mean ± sd) [27]: 0.67 (0)
